In patent publication US6340692B1, “Injectable anesthetic” (priority 1999, dated 2002):

Tests used:
[1] = tested on: male chinchilla rabbits; assay: Epidural anesthesia in rabbits; type: in vivo; conditions: for effective duration of epidural anesthesia: chinoxicaine 2.0% solution, Lidocaine as comparison
Procedure: A study of epidural anesthesia was conducted on male chinchilla rabbits. The epidural puncture was made in the area of the third and fourth lumbar vertebrae by means of a Tuohi-Peridur needle. A 2.0% solution of chinoxicaine was injected into the epidural area in a volume determined in accordance with the following formula: [formula]

[2] = Conduction anesthesia, some models (general statements); type: in vivo
[3] = tested on: male guinea pigs; assay: Infiltration anesthesia, Beulbring-Wade method; type: in vivo
Procedure: The pharmacological activity of chinoxicaine has been evaluated using the characteristics of: i) strength of anesthesia, ii) latent period, and iii) duration of anesthesia. A study of infiltration anesthesia was conducted according to the Beulbring-Wade method on male guinea pigs. The median effective concentration (EC50) was 0.1%. Latent period was about 1.5 minutes. The duration of deep anesthesia was: i) 25 minutes for the 0.1% solution, ii) 140.5 minutes for a 0.25% solution, iii) 310.8 minutes for a 0.5% solution, and iv) 313.8 minutes for a 1.0% solution. On the basis of specific pharmacological activity data, described in greater detail below, chinoxicaine is preferably provided as either a 0.25% or 0.5% solution in 250 mL bottles for use in infiltration anesthesia, and as a 1.0% or 2.0% solution in 5 mL ampoules for conduction and epidural anesthesia. In alternative embodiments, the anesthesia solution includes a 0.9% solution of sodium chloride.

[4] = tested on: white non-breeding rats; assay: Conduction anesthesia, injection under the tail skin; type: in vivo; conditions: 1.0 mL under the tail skin
Procedure: A study of conduction anesthesia was carried out on white non-breeding rats weighing 180 to 220 grams. The anesthetic solution was injected under the tail skin on four sides in a 1.0 mL volume at concentrations ranging from 0.1% to 1.0%. Duration of the anesthetic solution was 120.3±7.1 minutes for the 0.1% concentration, 300.5±15.5 minutes for a 0.25% concentration, 306.0±16.2 minutes for a 0.5% concentration, and 320.0±13.1 minutes for the 1.0% concentration.

[5] = tested on: sciatic nerve; assay: Sciatic nerve conduction anesthesia, Camaugis-Tekman method; type: in vivo, rats; conditions: for duration of the anesthesia: 0.2 mL
Procedure: A study of sciatic nerve conduction anesthesia in rats was conducted in accordance with the Camaugis-Tekman method. Prior to injection of the anesthesia, the rat motor activity was evaluated by applying a compression to the animal's feet. Then, a 0.2 mL volume of chinoxicaine solution was injected into the sciatic nerve area of the pronated lower extremity. With the application of a subsequent compression to the its feet, the animal's reaction was evaluated by observing if the animal pulled apart its toes in a ‘fan-shaped’ manner when suspended by its tail. It was determined that both 1.0% and 2.0% concentrations of chinoxicaine solutions produced fast, deep, and prolonged anesthesia. The anesthesia reached fill extent within 2.0±0.3 minutes, with either concentration.

[6] = infiltration anesthesia, male guinea pigs

## CCN(CC)CC(=O)Nc1c(C)cccc1C [Lidocaine, reference compound]
[1]; epidural
  effective duration of epidural anesthesia: about 100 minutes

## CCCn1c(=O)c(C(=O)NCCN(CC)CC)c(O)c2ccccc21.Cl [chinoxicaine, hydrochloride diethylaminoethylamide 1-propyl-2 oxy-4-hydroxyquinolin-3-carbonic acid]
[1]; 2.0% solution, epidural
  time from injection to deep and prolonged anesthesia: ≤ 5.0 min
[1]; epidural
  effective duration of epidural anesthesia: at least 200 minutes
[1]; epidural anesthesia
  increase in activity as compared to Lidocaine: two-fold increase
[1]; rabbits
  duration of long and deep epidural and peridermal anesthesia: about 270 minutes
[2]; 0.5% solution, conduction applications
  effective duration relative to Trimecaine or Lidocaine: as much as twice
[2]; conduction anesthesia
  increase in activity over Trimecaine: comparable increase
[3]; 0.1% solution
  duration of deep anesthesia: 25 min
[3]; 0.25% solution
  duration of deep anesthesia: 140.5 min
[3]; 0.5% solution
  duration of deep anesthesia: 310.8 min
[3]; 0.5% solution, long infiltration applications
  effectiveness relative to Lidocaine or Azacaine: ≤ 2.5 times
[3]; 1.0% solution
  duration of deep anesthesia: 313.8 min
[3]; infiltration anesthesia
  increase in activity as compared to Lidocaine: two-fold increase
  increase in activity over Trimecaine: comparable increase
[3]; [6]
  Latent period: about 1.5 minutes
  median effective concentration (EC50): 0.1%
[4]; 0.1% concentration
  Duration of conduction anesthesia: 120.3 ± 7.1 min
[4]; 0.25% concentration
  Duration of conduction anesthesia: 300.5 ± 15.5 min
[4]; 0.5% concentration
  Duration of conduction anesthesia: 306.0 ± 16.2 min
[4]; 1.0% concentration
  Duration of conduction anesthesia: 320.0 ± 13.1 min
[5]; 1.0% concentration
  duration of the anesthesia: 138.0 ± 8.9 min
[5]; 2.0% concentration
  duration of the anesthesia: 205.0 ± 12.6 min
[5]; either 1.0% or 2.0% concentration, 0.2 mL into sciatic nerve area
  time until anesthesia reached full extent: ≤ 2.0 ± 0.3 min
